Source: the supplement of paper PMC11061612

Legend:
Prexasertib = compound: COc1cccc(OCCCN)c1-c1cc(Nc2cnc(C#N)cn2)n[nH]1 [Prexasertib]; settings: max 1 µM
Summary of the method: (§1)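 Cancer cell lines in 1536-well plates (7.5 μl DMEM/F12 or RPMI, 10% FBS) were held 24 hours at 37°C and 5% CO2 and then dosed for 72 hours at a final DMSO of typically 0.2%. Viability was taken from CellTiter-Glo 2.0 luminescence, scaled between blank-well and DMSO-well means. Curves were fitted as two-parameter logistic models with a non-linear mixed effects model, from which the single-agent IC50 was taken.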

Savolitinib = compound: C[C@@H](c1ccc2nccn2c1)n1nnc2ncc(-c3cnn(C)c3)nc21 [Savolitinib]; settings: max 1 µM
Summary of the method: as §1

Gefitinib = compound: COc1cc2ncnc(Nc3ccc(F)c(Cl)c3)c2cc1OCCCN1CCOCC1 [Gefitinib]; settings: max 10 µM
Summary of the method: as §1

MK-2206 = compound: NC1(c2ccc(-c3nc4ccn5c(=O)[nH]nc5c4cc3-c3ccccc3)cc2)CCC1 [MK-2206]; settings: max 10 µM
Summary of the method: as §1

AZD7648 = compound: Cc1cc2ncnn2cc1Nc1ncc2c(n1)n(C1CCOCC1)c(=O)n2C [AZD7648]; settings: max 10 µM
Summary of the method: as §1

Dasatinib = compound: CC1=C(C(=CC=C1)Cl)NC(=O)C2=CN=C(S2)NC3=CC(=NC(=N3)C)N4CCN(CC4)CCO [Dasatinib]; settings: max 2 µM
Summary of the method: as §1

AZD5153 = compound: COc1nnc2ccc(N3CCC(c4ccc(OCCN5CCN(C)C(=O)[C@H]5C)cc4)CC3)nn12 [AZD5153]; settings: max 1 µM
Summary of the method: as §1

AZD8186 = compound: C[C@@H](Nc1cc(F)cc(F)c1)c1cc(C(=O)N(C)C)cc2c(=O)cc(N3CCOCC3)oc12 [AZD8186]; settings: max 10 µM
Summary of the method: as §1

Olaparib = compound: O=C(c1cc(Cc2n[nH]c(=O)c3ccccc23)ccc1F)N1CCN(C(=O)C2CC2)CC1 [Olaparib]; settings: max 10 µM
Summary of the method: as §1

AZD4320 = compound: CN(CC[C@H](CSC1=CC=CC=C1)NC2=C(C=C(C=C2)S(=O)(=O)NC(=O)C3=CC=C(C=C3)N4CCC(CC4)[C@H](C5=CC=CC=C5C6=CC=C(C=C6)Cl)O)S(=O)(=O)C(F)(F)F)CCO [AZD4320]; settings: max 1 µM
Summary of the method: as §1

Palbociclib = compound: CC(=O)c1c(C)c2cnc(Nc3ccc(N4CCNCC4)cn3)nc2n(C2CCCC2)c1=O [Palbociclib]; settings: max 10 µM
Summary of the method: as §1

AZD1390 = compound: CC(C)n1c(=O)n(C)c2cnc3cc(F)c(-c4ccc(OCCCN5CCCCC5)nc4)cc3c21 [AZD1390]; settings: max 0.3 µM
Summary of the method: as §1

Carboplatin = compound: C1CC(C1)(C(=O)[O-])C(=O)[O-].N.N.[Pt+2] [Carboplatin]; settings: max 10 µM
Summary of the method: as §1

Lapatinib = compound: CS(=O)(=O)CCNCc1ccc(-c2ccc3ncnc(Nc4ccc(OCc5cccc(F)c5)c(Cl)c4)c3c2)o1 [Lapatinib]; settings: max 10 µM
Summary of the method: as §1

Gemcitabine = compound: Nc1ccn([C@@H]2O[C@H](CO)[C@@H](O)C2(F)F)c(=O)n1 [Gemcitabine]; settings: max 0.3 µM
Summary of the method: as §1

Doxorubicin = compound: COc1cccc2c1C(=O)c1c(O)c3c(c(O)c1C2=O)C[C@@](O)(C(=O)CO)C[C@@H]3O[C@H]1C[C@H](N)[C@H](O)[C@H](C)O1 [Doxorubicin]; settings: max 1 µM
Summary of the method: as §1

Paclitaxel = compound: CC(=O)O[C@H]1C(=O)[C@@]2(C)[C@H]([C@H](OC(=O)c3ccccc3)[C@]3(O)C[C@H](OC(=O)[C@H](O)[C@@H](NC(=O)c4ccccc4)c4ccccc4)C(C)=C1C3(C)C)[C@]1(OC(C)=O)CO[C@@H]1C[C@@H]2O [Paclitaxel]; settings: max 3 µM
Summary of the method: as §1

Alisertib = compound: COc1cc(Nc2ncc3c(n2)-c2ccc(Cl)cc2C(c2c(F)cccc2OC)=NC3)ccc1C(=O)O [Alisertib]; settings: max 10 µM
Summary of the method: as §1

AZD0156 = compound: CN(C)CCCOc1ccc(-c2ccc3ncc4c(c3c2)n(C2CCOCC2)c(=O)n4C)cn1 [AZD0156]
Summary of the method: as §1

AZD5363 = compound: C1CN(CCC1(C(=O)N[C@@H](CCO)C2=CC=C(C=C2)Cl)N)C3=NC=NC4=C3C=CN4 [AZD5363]; settings: max 10 µM
Summary of the method: as §1

5-Fluorouracil = compound: O=c1[nH]cc(F)c(=O)[nH]1 [5-Fluorouracil]; settings: max 20 µM
Summary of the method: as §1

AZD6738 = compound: C[C@@H]1COCCN1C2=NC(=NC(=C2)C3(CC3)[S@](=N)(=O)C)C4=C5C=CNC5=NC=C4 [AZD6738]; settings: max 10 µM
Summary of the method: as §1

Trametinib = compound: CC(=O)Nc1cccc(-n2c(=O)n(C3CC3)c(=O)c3c(Nc4ccc(I)cc4F)n(C)c(=O)c(C)c32)c1 [Trametinib]; settings: max 1 µM
Summary of the method: as §1

Taselisib = compound: Cc1nc(-c2cn3c(n2)-c2ccc(-c4cnn(C(C)(C)C(N)=O)c4)cc2OCC3)n(C(C)C)n1 [Taselisib]; settings: max 10 µM
Summary of the method: as §1

AZD1775 = compound: C=CCn1c(=O)c2cnc(Nc3ccc(N4CCN(C)CC4)cc3)nc2n1-c1cccc(C(C)(C)O)n1 [AZD1775]
Summary of the method: as §1

SN-38 = compound: CCc1c2c(nc3ccc(O)cc13)-c1cc3c(c(=O)n1C2)COC(=O)[C@]3(O)CC [SN-38]; settings: max 0.3 µM
Summary of the method: as §1

SRA737 = compound: N#Cc1cnc(Nc2cc(NC[C@H]3CNCCO3)c(C(F)(F)F)cn2)cn1 [SRA737]; settings: max 10 µM
Summary of the method: as §1

Crizotinib = compound: C[C@@H](Oc1cc(-c2cnn(C3CCNCC3)c2)cnc1N)c1c(Cl)ccc(F)c1Cl [Crizotinib]; settings: max 10 µM
Summary of the method: as §1

[1] = compound: O=C(Nc1ccc2[nH]nc(-c3ccncc3)c2c1)[C@@H]1CCN(CC(=O)N2CCN(c3ccc(-c4ncccn4)cc3)CC2)C1; settings: max 5 µM
Summary of the method: as §1

Venetoclax = compound: CC1(C)CCC(CN2CCN(c3ccc(C(=O)NS(=O)(=O)c4ccc(NCC5CCOCC5)c([N+](=O)[O-])c4)c(Oc4cnc5[nH]ccc5c4)c3)CC2)=C(c2ccc(Cl)cc2)C1 [Venetoclax]; settings: max 1 µM
Summary of the method: as §1

Selumetinib = compound: Cn1cnc2c(F)c(Nc3ccc(Br)cc3Cl)c(C(=O)NOCCO)cc21 [Selumetinib]; settings: max 10 µM
Summary of the method: as §1

AZD2811 = compound: CCN(CCO)CCCOc1ccc2c(Nc3cc(CC(=O)Nc4cccc(F)c4)[nH]n3)ncnc2c1 [AZD2811]; settings: max 1 µM
Summary of the method: as §1

SG3199 = compound: CC1=CN2[C@@H](C1)C=NC3=CC(=C(C=C3C2=O)OC)OCCCCCOC4=C(C=C5C(=C4)N=C[C@@H]6CC(=CN6C5=O)C)OC [SG3199]; settings: max 0.001 µM
Summary of the method: as §1

AZD5991 = compound: Cc1c2c(nn1C)CSCc1cc(n(C)n1)CSc1cc(c3ccccc3c1)OCCCc1c(C(=O)O)n(C)c3c-2c(Cl)ccc13 [AZD5991]; settings: max 1 µM
Summary of the method: as §1

Etoposide = compound: COc1cc([C@@H]2c3cc4c(cc3[C@@H](O[C@@H]3O[C@@H]5CO[C@@H](C)O[C@H]5[C@H](O)[C@H]3O)[C@H]3COC(=O)[C@H]23)OCO4)cc(OC)c1O [Etoposide]; settings: max 10 µM
Summary of the method: as §1

Row | Cell Line | IC50, cell viability 72 h (Prexasertib) [µM] | IC50, cell viability 72 h (Savolitinib) [µM] | IC50, cell viability 72 h (Gefitinib) [µM] | IC50, cell viability 72 h (MK-2206) [µM] | IC50, cell viability 72 h (AZD7648) [µM] | IC50, cell viability 72 h (Dasatinib) [µM] | IC50, cell viability 72 h (AZD5153) [µM] | IC50, cell viability 72 h (AZD8186) [µM] | IC50, cell viability 72 h (Olaparib) [µM] | IC50, cell viability 72 h (AZD4320) [µM] | IC50, cell viability 72 h (Palbociclib) [µM] | IC50, cell viability 72 h (AZD1390) [µM] | IC50, cell viability 72 h (Carboplatin) [µM] | IC50, cell viability 72 h (Lapatinib) [µM] | IC50, cell viability 72 h (Gemcitabine) [µM] | IC50, cell viability 72 h (Doxorubicin) [µM] | IC50, cell viability 72 h (Paclitaxel) [µM] | IC50, cell viability 72 h (Alisertib) [µM] | IC50, cell viability 72 h (AZD0156; max 1 µM) [µM] | IC50, cell viability 72 h (AZD5363) [µM] | IC50, cell viability 72 h (5-Fluorouracil) [µM] | IC50, cell viability 72 h (AZD6738) [µM] | IC50, cell viability 72 h (Trametinib) [µM] | IC50, cell viability 72 h (Taselisib) [µM] | IC50, cell viability 72 h (AZD1775; max 1 µM) [µM] | IC50, cell viability 72 h (SN-38) [µM] | IC50, cell viability 72 h (SRA737) [µM] | IC50, cell viability 72 h (Crizotinib) [µM] | IC50, cell viability 72 h [1] [µM] | IC50, cell viability 72 h (Venetoclax) [µM] | IC50, cell viability 72 h (Selumetinib) [µM] | IC50, cell viability 72 h (AZD2811) [µM] | IC50, cell viability 72 h (SG3199) [µM] | IC50, cell viability 72 h (AZD5991) [µM] | IC50, cell viability 72 h (Etoposide) [µM] | IC50, cell viability 72 h (AZD0156; max 3 µM) [µM] | IC50, cell viability 72 h (AZD1775; max 3 µM) [µM]
1 | SNU-16 (Gastric Carcinoma) | 0.0101 | > 1 | 9.59 | > 10 | > 10 | > 2 | 0.241 | > 10 | > 10 | > 1 | 6.23 | > 0.3 | > 10 | > 10 | 0.00696 | 0.301 | < 0.003 | 0.106 | > 1 | > 10 | > 20 | 0.754 | > 1 | > 10 | 0.522 | 0.0229 | 1.2 | 2.8 | > 5 | > 1 | > 10 | 0.479 | > 0.001 | 0.17 | 5.56 |  | 
2 | SNU-449 (Hepatocellular Carcinoma) | > 1 | > 1 | > 10 | > 10 | > 10 | 1.26 | > 1 | > 10 | > 10 | > 1 | > 10 | > 0.3 | > 10 | > 10 | > 0.3 | > 1 | > 3 | > 10 |  | > 10 | > 20 | > 10 | > 1 | > 10 |  | > 0.3 | > 10 | > 10 | > 5 | > 1 | > 10 | > 1 | > 0.001 | > 1 | > 10 | > 3 | > 3
